Measurements as given in patent US20060216299A1, “Cell cycle targets and peptides” (Rigel Pharmaceuticals, Inc., priority 2002, published 2006).

Tested on: A549.tTA cells expressing #38 and #41
Experiment: Role of farnesylation in cellular localization of GFP fused #38
Type: cell-based, human
Conditions: 2 μM L-744,832, 48 hours
Procedure: #38 has a CAAX box motif in the C-terminus. A 15-carbon farnesyl or 20-carbon geranylgeranyl isoprenoid is linked to the Cys in a CAAX box motif by Farnesyl transferase or Geranylgeranyl transferase, respectively (Fu, H. W. et al., Recent Prog Horm Res, 54:315-342; discussion 342-313 (1999)). The role of farnesylation in cellular localization of #38 was examined. A549.tTA cells expressing #38 and #41 were treated with a peptidomimetic farnesyltransferase specific inhibitor, L-744,832 for 48 hours.

CC[C@H](C)[C@@H](CO[C@@H](Cc1ccccc1)C(=O)N[C@@H](CCS(C)(=O)=O)C(=O)OC(C)C)NC[C@@H](N)CS [L-744,832]
cellular localization of #38 in the presence of inhibitor: completely abolished
